In PMC6403271, “Characterization, mechanism of action and optimization of activity of a novel peptide-peptoid hybrid against bacterial pathogens involved in canine skin infections” (Scientific Reports, 2019):
Read-outs that look alike come from different tables or passages of the source. Square brackets hold non-standard residues; d marks the D form. Peptide text beside a SMILES is read from it. N(1-naphthylmethyl)Gly = O=C(O)CNCc1cccc2ccccc12; 1Nal = N[C@@H](Cc1cccc2ccccc12)C(=O)O; 2Nal = N[C@@H](Cc1ccc2ccccc2c1)C(=O)O; d1Nal = N[C@H](Cc1cccc2ccccc12)C(=O)O; d2Nal = N[C@H](Cc1ccc2ccccc2c1)C(=O)O; Nle = CCCC[C@H](N)C(=O)O; Nphe = O=C(O)CNCc1ccccc1; NBuGly = CCCCNCC(=O)O

Assays:
MRSP C22963 = assay type: cell-based, Staphylococcus pseudintermedius
Procedure: (§1) Activity of B1 was tested on 50P. aeruginosa isolates and 57S. pseudintermedius isolates (including 7 MRSP) that had been isolated in the diagnostic laboratory Sund Vet Diagnostik (University of Copenhagen) from various infections in dogs between 2009 and 2011. Representative MRSP (C22963), MSSA, and P. aeruginosa (26314) were used for testing the first set of B1 analogues.
(§2) MIC determination was performed by broth microdilution according to the Clinical and Laboratory Standard Institute (CLSI, M31-A3, 2008)[62]. In brief, each bacterial strain was diluted to concentration of 5 × 10^5 CFU/mL in Mueller Hinton broth II (MHB II) media (Oxoid) and added to a two-fold serial dilution of peptides and peptide-peptoid hybrids concentrations ranging from 1 to 64 µg/ml in 96-well plates (Nunc Internationals, Rochester, NY). The MICs were determined as a lowest concentration showing no visible growth after incubation for 18 hours at 37 °C. Experiments were performed in triplicates on two different days.

MSSA (ATCC 29213) = assay type: cell-based, Staphylococcus aureus
Procedure: as §1, §2

P. aeruginosa (26314) = assay type: cell-based, Pseudomonas aeruginosa
Procedure: Activity of B1 was tested on […]. aeruginosa isolates and […]. pseudintermedius isolates (including 7 MRSP) that had been isolated in the diagnostic laboratory Sund Vet Diagnostik (University of Copenhagen) from various infections in dogs between 2009 and 2011. Representative […], and P. aeruginosa (26314) were used for testing the first set of B1 analogues. For antibacterial spectrum the following strains were used: Corynebacterium auriscanis, 31551, (54 C6, dog, ear, 2013); Enterococcus faecalis, 27404, (17 C7, dog, wound, 2011); Enterococcus faecium, 30951, (24 C1, dog, ear, 2013); Streptococcus canis, 26740-1, (14 H1, dog, ear, 2010); Staphylococcus aureus, 27266, (16 G9, dog, skin, 2010); Staphylococcus aureus, 27266, (16 G9, dog, skin, 2010); Staphylococcus pseudintermedius 22963, (3 B9, dog, 2007). Acinetobacter baumannii, 27065, (16 D1, dog, wound, 2010); E. coli, 30235, 23 A6, dog, wound, 2012; Klebsiella pneumoniae, 26233, (11 H5, dog, wound, 2010); Pasteurella canis, 31096, (24 C8, dog, skin, 2013); Proteus mirabilis, 25178, (9 A4, dog, ear, 2009); Pseudomonas aeruginosa 26314, 12 C5, dog, urine, 2010). MIC determination was performed by broth microdilution according to the Clinical and Laboratory Standard Institute (CLSI, […]-A3, 2008)[62]. In brief, each bacterial strain was diluted to concentration of 5 × 10^5 CFU/mL in Mueller Hinton broth II (MHB II) media (Oxoid) and added to a two-fold serial dilution of peptides and peptide-peptoid hybrids concentrations ranging from 1 to 64 μg/ml in 96-well plates (Nunc Internationals, Rochester, NY). The MICs were determined as a lowest concentration showing no visible growth after incubation for 18 hours at 37 °C. Experiments were performed in triplicates on two different days.

human red blood cells = assay type: cell-based; conditions: for EC50: red cells of human, 1 h
Procedure: (§3) Briefly, two-fold serial dilutions (2.35 to 150 μM) of compounds in phosphate buffer saline (PBS) were mixed with equal volume of 0.5% v/v suspension of fresh human red blood cells (RBC) in the same buffer. After 1 h incubation at 37 °C, plates were centrifuged and aliquots of the supernatants were transferred to clear 96-well plates. Absorbance at 414 nm was measured and normalized using a negative (PBS, 0%) and a positive (melittin, 100%) control. The EC10 and EC50 are concentrations at which 10% and 50% of RBC were lysed, respectively, as interpolated graphically by the y-axis intersection of the plotted data.

[1] = assay type: cell-based, human; conditions: human
Procedure: as §3

| Compound | Minimum Inhibitory Concentration MRSP C22963 (MRSP C22963; Table 1) [µg/mL] | Minimum Inhibitory Concentration MSSA (ATCC 29213) (MSSA (ATCC 29213); Table 1) [µg/mL] | Minimum Inhibitory Concentration P. aeruginosa (26314) (P. aeruginosa (26314); Table 1) [µg/mL] | Haemolysis EC10 (human red blood cells) [µM] | Haemolysis %H 150(µM) (human red blood cells; 150 µM) [%] | Minimum Inhibitory Concentration MRSP C22963 (MRSP C22963; 18 h) [µg/mL] | Minimum Inhibitory Concentration MSSA (ATCC 29213) (MSSA (ATCC 29213); ATCC 29213, 18 h) [µg/mL] | Minimum Inhibitory Concentration P. aeruginosa (26314) (P. aeruginosa (26314); 26314, 18 h) [µg/mL] | hemolysis at 1 h, 150 µM [1] [%] | EC50 (human red blood cells) [µM] |
| --- | --- | --- | --- | --- | --- | --- | --- | --- | --- | --- |
| Lys-Lys-Lys-Leu-(2-Nal)Ala-Tyr-(2-Nal)Ala [Compound 22] | 16 | >64 | >64 | 117 | 14 |  |  |  |  |  |
| CC(C)C[C@@H](NC(=O)[C@@H](Cc1cccc2ccccc12)NC(=O)[C@@H](Cc1ccccc1)NC(=O)[C@H](N)Cc1cccc2ccccc12)C(=O)N[C@@H](CCCCN)C(=O)N[C@@H](CCCCN)C(=O)N[C@@H](CCCCN)C(N)=O [Compound 21, (1-Nal)ala-phe-(1-Nal)ala-leu-Lys-Lys-Lys] (H-[d1Nal][dF][d1Nal][dL]KKK-NH2; N-terminus assumed) |  |  |  |  |  | 16 | 32 | 32 | < 8 |  |
| CC(C)C[C@@H](NC(=O)[C@@H](Cc1ccc2ccccc2c1)NC(=O)[C@@H](Cc1ccccc1)NC(=O)[C@H](N)Cc1ccc2ccccc2c1)C(=O)N[C@@H](CCCCN)C(=O)N[C@@H](CCCCN)C(=O)N[C@@H](CCCCN)C(N)=O [Compound 19, (2-Nal)ala-phe-(2-Nal)ala-leu-Lys-Lys-Lys] (H-[d2Nal][dF][d2Nal][dL]KKK-NH2; N-terminus assumed) |  |  |  |  |  | 16 | 32 | >64 | < 8 |  |
| CC(C)C[C@H](NC(=O)[C@H](CCCCN)NC(=O)[C@H](Cc1cccc2ccccc12)NC(=O)[C@H](Cc1ccccc1)NC(=O)[C@@H](N)Cc1cccc2ccccc12)C(=O)N[C@@H](CCCCN)C(=O)N[C@@H](CCCCN)C(N)=O [Compound 10, (1-Nal)Ala-Phe-(1-Nal)Ala-Lys-Leu-Lys-Lys] (H-[1Nal]F[1Nal]KLKK-NH2; N-terminus assumed) |  |  |  |  |  | 8 to 16 | 16 to 32 | 64 | < 8 |  |
| CCCC[C@H](NC(=O)[C@H](CCCCN)NC(=O)[C@H](CCCCN)NC(=O)[C@@H](N)CCCCN)C(=O)N[C@@H](Cc1ccc2ccccc2c1)C(=O)N[C@@H](Cc1ccc(O)cc1)C(=O)N[C@@H](Cc1ccc2ccccc2c1)C(N)=O [Compound 27, Lys-Lys-Lys-Nle-(2-Nal)Ala-Tyr-(2-Nal)Ala] (H-KKK[Nle][2Nal]Y[2Nal]-NH2; N-terminus assumed) |  |  |  | 3 |  | 2 to 4 |  | 64 | 54 | 56 |
| CC(C)C[C@@H](NC(=O)[C@H](CCCCN)NC(=O)[C@H](CCCCN)NC(=O)[C@@H](N)CCCCN)C(=O)N[C@H](Cc1cccc2ccccc12)C(=O)N[C@H](Cc1ccc(O)cc1)C(=O)N[C@H](Cc1cccc2ccccc12)C(N)=O [Compound 25, Lys-Lys-Lys-leu-(1-Nal)ala-tyr-(1-Nal)ala] (H-KKK[dL][d1Nal][dY][d1Nal]-NH2; N-terminus assumed) |  |  | 8 | 38 |  | 2 to 4 |  |  | 53 | 138 |
| CCCCN(CC(=O)N[C@@H](CCCCN)C(=O)N[C@@H](CCCCN)C(N)=O)C(=O)[C@H](CCCCN)NC(=O)CN(Cc1cccc2ccccc12)C(=O)CN(Cc1ccccc1)C(=O)CNCc1cccc2ccccc12 [Compound 5, (N1-Nal)Gly-(NPhe)Gly-(N1-Nal)Gly-Lys-(NBu)Gly-Lys-Lys] (H-[N(1-naphthylmethyl)Gly][Nphe][N(1-naphthylmethyl)Gly]K[NBuGly]KK-NH2; N-terminus assumed) |  |  |  |  |  | 8 | 16 | 32 | < 8 |  |
| CCCCN(CC(=O)N(CC(=O)N(CC(=O)N(CC(N)=O)Cc1cccc2ccccc12)Cc1ccccc1)Cc1cccc2ccccc12)C(=O)[C@H](CCCCN)NC(=O)[C@H](CCCCN)NC(=O)[C@@H](N)CCCCN [Compound 3, Lys-Lys-Lys-(NBu)Gly-(N1-Nal)Gly-(NPhe)Gly-(N1-Nal)Gly] (H-KKK[NBuGly][N(1-naphthylmethyl)Gly][Nphe][N(1-naphthylmethyl)Gly]-NH2; N-terminus assumed) |  |  |  |  |  | 4 | 16 | 32 | < 8 |  |
| CC(C)C[C@@H](NC(=O)[C@H](CCCCN)NC(=O)[C@@H](Cc1cccc2ccccc12)NC(=O)[C@@H](Cc1ccccc1)NC(=O)[C@H](N)Cc1cccc2ccccc12)C(=O)N[C@@H](CCCCN)C(=O)N[C@@H](CCCCN)C(N)=O [Compound 20, (1-Nal)ala-phe-(1-Nal)ala-Lys-leu-Lys-Lys] (H-[d1Nal][dF][d1Nal]K[dL]KK-NH2; N-terminus assumed) |  |  |  |  |  | 16 | 32 to 64 | >64 | < 8 |  |
| CCCCN(CC(=O)N[C@@H](CCCCN)C(=O)N(CC(=O)N(CC(=O)N(CC(N)=O)Cc1cccc2ccccc12)Cc1ccccc1)Cc1cccc2ccccc12)C(=O)[C@H](CCCCN)NC(=O)[C@@H](N)CCCCN [Compound 2, Lys-Lys-(NBu)Gly-Lys-(N1-Nal)Gly-(NPhe)Gly-(N1-Nal)Gly] (H-KK[NBuGly]K[N(1-naphthylmethyl)Gly][Nphe][N(1-naphthylmethyl)Gly]-NH2; N-terminus assumed) |  |  |  |  |  | 4 | 8 to 16 | 32 | < 8 |  |
| CC(C)C[C@@H](NC(=O)[C@H](CCCCN)NC(=O)[C@H](CCCCN)NC(=O)[C@@H](N)CCCCN)C(=O)N[C@H](Cc1ccc2ccccc2c1)C(=O)N[C@H](Cc1ccc(O)cc1)C(=O)N[C@H](Cc1ccc2ccccc2c1)C(N)=O [Compound 28, Lys-Lys-Lys-leu-(2-Nal)ala-tyr-(2-Nal)ala] (H-KKK[dL][d2Nal][dY][d2Nal]-NH2; N-terminus assumed) |  |  |  | 6 |  | 2 to 4 |  | 32 | 64 | 50 |
